Among the test systems are 786-0; BT-549; COLO 205; HCC 2998; HL-60; HT-29; K562; KM12; LOX IMVI; MCF7; MDA-MB-231; MDA-MB-435; MOLT-4; NCI-H23; OVCAR-3; SF-539; SK-MEL-2; SNB-19; T47D; U-251.
Common to all, as to assay: growth of human tumour cells (NCI), 48 h

Where a name gives a salt, the structure may show the parent alone.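 48-hour exposure; five concentrations; linearly interpolated endpoints. GI50 is the concentration that inhibits growth by half.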 The source made the active and inactive calls. No stated cut-off is given here; in the data, active = GI50 up to about 1.1 µM and inactive = higher.

As for `Oc1ccc(Cn2c(-c3ccc(O)cc3)nc3ccccc32)cc1`, the GI50 in the experiment on 786-0 is > 100 µM (inactive); with BT-549, > 100 µM (inactive); in the experiment with COLO 205 it was > 100 µM (inactive); in the experiment on HCC 2998, > 100 µM (inactive); in the experiment on HL-60, > 31.6 µM (inactive); with HT-29, > 100 µM (inactive). The GI50 in the experiment on K562, in the experiment with KM12, in the experiment on LOX IMVI, in the experiment with MCF7, in the experiment with MDA-MB-231 and in the experiment with MDA-MB-435 was > 100 µM (inactive) each time. The GI50 in the experiment with MOLT-4, in the experiment on NCI-H23, with OVCAR-3, with SF-539, in the experiment with SK-MEL-2 and in the experiment on SNB-19 was > 100 µM (inactive) throughout. Further, the GI50 in the experiment with T47D and in the experiment with U-251 was > 100 µM (inactive) in each case.
Turning to `CC1OC(OC2C(O)COC(OC3C(C)OC(OC4C(OC(=O)[C@]56CCC(C)(C)C[C@@H]5C5=CCC7[C@@]8(C)C[C@H](O)[C@H](OC9OC(CO)C(O)C(O)C9O)[C@@](C)(CO)[C@@H]8CC[C@@]7(C)[C@]5(C)CC6)OCC(O)C4O)C(O)C3OC3OCC(O)(CO)C3O)C2O)C(O)C(O)C1O` (stereo not given in full), the GI50 is 12.4 µM (inactive) with 786-0; 16.6 µM (inactive) in the experiment with BT-549; 2.51 µM (inactive) with COLO 205; 5.18 µM (inactive) in the experiment with HCC 2998; 8.73 µM (inactive) in the experiment on HL-60; 17.5 µM (inactive) in the experiment on HT-29. Further, the GI50 was 28.5 µM (inactive) in the experiment on K562; 18.8 µM (inactive) with KM12; 19.8 µM (inactive) in the experiment with LOX IMVI; 25.5 µM (inactive) with MCF7; 12.6 µM (inactive) in the experiment on MDA-MB-231; 17.4 µM (inactive) in the experiment on MDA-MB-435. Moreover, the GI50 was 15.7 µM (inactive) in the experiment on MOLT-4; 9.31 µM (inactive) in the experiment on NCI-H23; 18.9 µM (inactive) in the experiment with OVCAR-3; 20.8 µM (inactive) in the experiment with SF-539; 13.8 µM (inactive) in the experiment on SK-MEL-2; 14.7 µM (inactive) in the experiment on SNB-19. Besides, the GI50 in the experiment with T47D is 18.8 µM (inactive); with U-251 it was 16.3 µM (inactive).
For the compound `CO/N=C(\C)c1cccc(Nc2c3ccccc3nc3occc23)c1`, the GI50 was 14.7 µM (inactive) in the experiment on 786-0; 18.1 µM (inactive) with BT-549; 5.24 µM (inactive) with COLO 205; 6.93 µM (inactive) in the experiment with HCC 2998; 3.53 µM (inactive) with HL-60; 4.47 µM (inactive) in the experiment on HT-29. The GI50 with K562 was 4.11 µM (inactive); in the experiment on KM12, 8.81 µM (inactive); in the experiment on LOX IMVI, 10.4 µM (inactive); with MCF7, 6.47 µM (inactive); in the experiment on MDA-MB-231, 9.79 µM (inactive); in the experiment with MDA-MB-435, 2.34 µM (inactive). Besides, the GI50 was 4.63 µM (inactive) with MOLT-4; 7.45 µM (inactive) with NCI-H23; 4.72 µM (inactive) with OVCAR-3; 9.06 µM (inactive) in the experiment with SF-539; 3.56 µM (inactive) in the experiment on SK-MEL-2; 17.5 µM (inactive) with SNB-19. For the same compound, the GI50 in the experiment with T47D is 7.23 µM (inactive); in the experiment on U-251, 14.2 µM (inactive).
Take `O=C1C(=Cc2cccc(Cl)c2)N=C(c2ccccc2)N1n1c(-c2ccccc2)nc2ccccc2c1=O`: the GI50 in the experiment on 786-0 was 47.4 µM (inactive); with BT-549 it was 23.7 µM (inactive); in the experiment on COLO 205, 40 µM (inactive); in the experiment on HCC 2998 it was 30.7 µM (inactive); in the experiment on HL-60, 24.2 µM (inactive); with HT-29 it was 37.2 µM (inactive). Moreover, the GI50 is 30.3 µM (inactive) in the experiment with K562; 9.55 µM (inactive) in the experiment with KM12; 31.3 µM (inactive) in the experiment with LOX IMVI; 25.9 µM (inactive) with MCF7; 50 µM (inactive) with MDA-MB-231; 36.8 µM (inactive) with MDA-MB-435. Moreover, the GI50 in the experiment with MOLT-4 is 23.4 µM (inactive); with NCI-H23, 20 µM (inactive); in the experiment on OVCAR-3, 28 µM (inactive); with SF-539, 27.9 µM (inactive); in the experiment with SK-MEL-2 it was 26.2 µM (inactive); with SNB-19, 38.1 µM (inactive). For the same compound, the figures for the GI50 in the experiment on T47D and with U-251 were 29.7 µM (inactive) and 28 µM (inactive), respectively.
For the compound `O=C1C(Br)=CC2(C=C1Br)CCNC1=C2C2=NCCc3c[nH]c(c32)C1=O`, the GI50 with 786-0 was 0.124 µM (active); with BT-549, 0.212 µM (active); in the experiment on COLO 205, 0.0149 µM (active); with HCC 2998, 0.506 µM (active); in the experiment on HL-60, 0.0129 µM (active); in the experiment with HT-29, 0.0275 µM (active). Further, the GI50 in the experiment with K562 is 0.028 µM (active); with KM12 it was 0.516 µM (active); with LOX IMVI it was 0.0615 µM (active); in the experiment with MCF7 it was 0.0266 µM (active); in the experiment on MDA-MB-231 it was 0.149 µM (active); with MDA-MB-435, 0.102 µM (active). For the same compound, the GI50 is 0.0315 µM (active) with MOLT-4; 0.119 µM (active) with NCI-H23; 0.0249 µM (active) with OVCAR-3; 0.246 µM (active) in the experiment on SF-539; 0.183 µM (active) in the experiment with SK-MEL-2; 1.41 µM (inactive) in the experiment with SNB-19. In addition, the GI50 with T47D is 0.0828 µM (active); in the experiment on U-251 it was 0.398 µM (active).
Turning to `COc1c(O)c(OC)c2oc(-c3ccc(O)cc3)c(OC)c(=O)c2c1O`, the GI50 in the experiment with 786-0 was 17.8 µM (inactive); in the experiment with BT-549, 43.2 µM (inactive); in the experiment with COLO 205, 99.5 µM (inactive); with HCC 2998 it was 32 µM (inactive); with HL-60, > 100 µM (inactive); with HT-29 it was 32.4 µM (inactive). Moreover, the GI50 with K562 was 55.6 µM (inactive); with KM12, 88.5 µM (inactive); in the experiment with LOX IMVI it was 30.9 µM (inactive); in the experiment with MCF7 it was 41.7 µM (inactive); in the experiment with MDA-MB-231, 42.5 µM (inactive); in the experiment with MDA-MB-435, 33.6 µM (inactive). The GI50 in the experiment with MOLT-4 was 57 µM (inactive); in the experiment with NCI-H23 it was 30.8 µM (inactive); with OVCAR-3, 14.8 µM (inactive); in the experiment on SF-539, 55.3 µM (inactive); with SK-MEL-2 it was 42.5 µM (inactive); in the experiment with SNB-19, > 100 µM (inactive). Moreover, the results for the GI50 in the experiment with T47D and in the experiment with U-251 were 10.2 µM (inactive) and 23.9 µM (inactive), respectively.
`c1cc2nnc1SCCCSc1ccc(nn1)SCCCSc1ccc(nn1)SCCCS2`: the GI50 in the experiment on 786-0 was 61 µM (inactive); in the experiment on BT-549, > 100 µM (inactive); in the experiment with COLO 205, > 100 µM (inactive); in the experiment on HCC 2998 it was > 100 µM (inactive); in the experiment on HL-60, > 100 µM (inactive); in the experiment on HT-29, > 100 µM (inactive). The GI50 was > 100 µM (inactive) in the experiment on K562; > 100 µM (inactive) in the experiment with KM12; > 100 µM (inactive) in the experiment on LOX IMVI; > 100 µM (inactive) with MCF7; 97.3 µM (inactive) with MDA-MB-231; > 100 µM (inactive) with MDA-MB-435. Further, the GI50 in the experiment on MOLT-4 was > 100 µM (inactive); in the experiment on NCI-H23, > 100 µM (inactive); with OVCAR-3, > 100 µM (inactive); in the experiment with SF-539, 82.4 µM (inactive); in the experiment with SK-MEL-2 it was 83.8 µM (inactive); with SNB-19, 44.7 µM (inactive). The GI50 in the experiment on T47D was > 100 µM (inactive); in the experiment with U-251, 65.2 µM (inactive).
Turning to `Cc1ccc(S[C@@](C=O)(NC(=O)OCc2ccccc2)C(F)(F)F)cc1`, the GI50 in the experiment on 786-0 was 20.4 µM (inactive); in the experiment with BT-549, 28.4 µM (inactive); in the experiment on COLO 205 it was 17 µM (inactive); in the experiment on HCC 2998 it was 37.8 µM (inactive); in the experiment with HL-60, 16.5 µM (inactive); in the experiment with HT-29 it was 16.9 µM (inactive). For the same compound, the GI50 is 28.6 µM (inactive) in the experiment with K562; 20.8 µM (inactive) with KM12; 21.3 µM (inactive) with LOX IMVI; 26.7 µM (inactive) in the experiment on MCF7; 19.6 µM (inactive) in the experiment on MDA-MB-231; 28.8 µM (inactive) in the experiment on MDA-MB-435. For the same compound, the GI50 in the experiment with MOLT-4 was 21.5 µM (inactive); in the experiment on NCI-H23 it was 19.5 µM (inactive); in the experiment on OVCAR-3, 42 µM (inactive); in the experiment on SF-539, 24.7 µM (inactive); in the experiment on SK-MEL-2, 25.8 µM (inactive); in the experiment with SNB-19, 21 µM (inactive). The GI50 is 23.8 µM (inactive) in the experiment on T47D and 17.6 µM (inactive) in the experiment with U-251.
Turning to `COc1cc2c(cc1C)NC(=O)/C2=C/c1c(Cl)n(C)c2ccccc12`, the GI50 in the experiment on 786-0 is 12.7 µM (inactive); in the experiment with BT-549 it was 4.57 µM (inactive); with COLO 205, 5.11 µM (inactive); with HCC 2998, 5.18 µM (inactive); in the experiment with HL-60 it was 2.61 µM (inactive); in the experiment on HT-29 it was 6.08 µM (inactive). Moreover, the GI50 in the experiment with K562 was 3.02 µM (inactive); with KM12 it was 3.34 µM (inactive); in the experiment with LOX IMVI, 7.69 µM (inactive); in the experiment on MCF7, 3.45 µM (inactive); in the experiment on MDA-MB-231, 12.9 µM (inactive); in the experiment on MDA-MB-435, 1.71 µM (inactive). Moreover, the GI50 in the experiment with MOLT-4 is 2.15 µM (inactive); in the experiment on NCI-H23, 6.27 µM (inactive); in the experiment with OVCAR-3, 4.11 µM (inactive); in the experiment on SF-539, 12.1 µM (inactive); with SK-MEL-2 it was 9.66 µM (inactive); in the experiment with SNB-19, 12.8 µM (inactive). For the same compound, the GI50 was 2.62 µM (inactive) with T47D and 10 µM (inactive) in the experiment on U-251.
As for `CC(=O)N(C)c1ccc(Nc2cc(C)nc3ccc4nc[nH]c4c23)cc1` [ACODAZOLE HYDROCHLORIDE], the GI50 in the experiment on 786-0 is 4.81 µM (inactive); in the experiment with BT-549, 10 µM (inactive); in the experiment with COLO 205, 4.38 µM (inactive); in the experiment with HCC 2998, 10.3 µM (inactive); in the experiment with HL-60 it was 7.03 µM (inactive); in the experiment on HT-29, 11.3 µM (inactive). The GI50 in the experiment on K562 is 8.07 µM (inactive); in the experiment on KM12 it was 7.96 µM (inactive); in the experiment with LOX IMVI it was 5.15 µM (inactive); in the experiment with MCF7 it was 3.66 µM (inactive); with MDA-MB-231, 13.6 µM (inactive); in the experiment with MDA-MB-435 it was 8.51 µM (inactive). Besides, the GI50 in the experiment on MOLT-4 was 1.72 µM (inactive); with NCI-H23, 10.2 µM (inactive); in the experiment on OVCAR-3, 8.63 µM (inactive); in the experiment on SF-539, 7.38 µM (inactive); in the experiment with SK-MEL-2, 10.8 µM (inactive); with SNB-19, 10.2 µM (inactive). In addition, the GI50 was 6.79 µM (inactive) in the experiment on T47D and 8.09 µM (inactive) with U-251.

(Values after ChEMBL document CHEMBL1201862, “PubChem BioAssay data set” (2004).)
